Read-outs that look alike come from different tables or passages of the source.
Key:
PDGFR = target: T1, PDGFR (Homo sapiens, UniProt P09619); experiment: Assay for modulation of PDGFR activity (ELISA); assay type: biochemical; conditions: read-out: bio PDGFR IC50
T1 construct: expressed in transfected cells; host or cells: NIH3T3
Experimental: Using the following reagents, supplies, and methods, the ability of the compounds of the invention to modulate the in vitro activity of the PDGFR can be readily determined in an enzyme-linked immunosorbent assay (ELISA).
Monoclonal anti-PDGFR antibody (28D4C10) is stored at −20° C. in 50 mL tubes prior to use.
Lysates from PDGFR-β expressing NIH3T3 cells are obtained and stored at −80° C. in 1 mL aliquots. PDGFR-β expression in eukaryotic cells is well known in the art. Lysates are prepared by the following method. Place carrier dishes in ice trays, and after cooling, remove the media and replace with ice cold PBS. Remove the PBS and repeat. […] Take up lysate with a pipettor and add to a 30 mL centrifuge tube on ice. Vortex the tubes for 30-60 seconds and then centrifuge for 10 minutes at 7000 rpm in a J-20 rotor which has been precooled to below 0° C. Recover the supernatants and combine them in a 250 mL tube and place on ice. Perform protein determination to measure the total quantity of protein per mL of solution. Aliquot the lysate into 1 mL fractions and store at −80° C.
Coat Corning 96 well ELISA plates with 0.5 μg per well 28D4C10 antibody in a volume of 100 μl PBS overnight, at 4° C. and remove unbound antibody, 28D4C10, from wells by inverting plate to remove liquid. Wash 1× with distilled H2O by filling wells. Pat the plate on a paper towel to remove excess liquid.
Add 150 μL of Blocking Buffer to each well. Incubate for 30 minutes at room temperature, with shaking and wash plate 3× with deionized water, then once with TBST. Pat plate on a paper towel to remove excess liquid and bubbles
Dilute lysate in PBS (10 mg lysate/100 μL PBS). Add 100 μL of diluted lysate to each well. Shake at room temperature for 60 min. Wash plate 3× with deionized water, then once with TBST. Pat plate on a paper towel to remove excess liquid and bubbles.
Add 80 μL Kinase Buffer to ELISA plate containing captured PDGFR.
Dilute drugs/extracts 1:10 (unless specified otherwise) in TBS+10% DMSO in 96-well polypropylene plates. (i.e., 10 μL compound+90 μL (TBS+10% DMSO)). Add 10 μL diluted drugs/extracts to ELISA plate. […] Incubate for 30 minutes while shaking at room temperature.
After 30 minutes stop reaction with addition of 10 μL of 200 mM EDTA pH 8.0 for 20 mM final in well. Wash 4× with deionized water, twice with TBST.
Incubate 30-45 minutes at room temperature, with shaking. Wash plate 3× with deionized water, then once with TBST. Pat plate on a paper towel to remove excess liquid and bubbles.
Incubate 30 minutes at room temperature with shaking. Wash plate 3× with deionized water, then once with TBST. Pat plate on a paper towel to remove excess liquid and bubbles.
Add 100 μL of ABTS/H2O2 solution to each well. Incubate 10 to 30 minutes while shaking. Remove any bubbles. If necessary stop reaction with the addition of 100 μL of 0.2M HCl per well
(§1) Read assay on Dynatech MR7000 ELISA reader.

EGFR = target: T2, EGFR (Homo sapiens, UniProt P00533); experiment: Assay for modulation of EGFR activity (ELISA); assay type: biochemical
T2 construct: A431 […] cell lysate is stored at −80° C; host or cells: A431 cell lysate
Experimental: Using the following reagents, supplies, and method, the ability of compounds of the invention to modulate the in vitro activity of EGFR can be readily determined in an ELISA.
A431 […] cell lysate is stored at −80° C.
ATP/MnCl2 phosphorylation mix is prepared by adding 300 μL of 1.0 mM ATP and […] of 1M MnCl2 to 9.2 mL of dH2O and mixing. Ten mL of phosphorylation mix is enough for about 6 assay plates. Note that the mixture should be made fresh and kept on ice immediately before use, and that although the preferred ATP is fresh from powder stock, any remaining stock solution of ATP may be frozen at −20° C. in small aliquots to be used at a later time.
Coat Corning 96 well ELISA plates with 0.5 μg per well with SUMO1 in a volume of 100 μL PBS overnight, at 4° C. Remove unbound SUMO1 from wells by inverting plate to remove liquid. Wash 1× with distilled H2O by filling wells. Pat the plate on a paper towel to remove excess liquid.
Add 150 μL of Blocking Buffer to each well. Incubate for 30 minutes at room temperature, with shaking. Wash plate 3× with deionized water, then once with TBST. Pat plate on a paper towel to remove excess liquid and bubbles.
Dilute lysate in PBS (7 μg lysate/[…]) and add 100 μL of diluted lysate to each well. Shake at room temperature for 60 minutes. Wash 1× with distilled H2O by filling wells. Pat the plate on a paper towel to remove excess liquid.
Add 120 μL TBST to ELISA plate containing captured EGFR.
Dilute drugs/extracts 1:10 (unless specified otherwise) in TBST in 96-well polypropylene plates. (i.e., 10 μL compound+90 μL TBST). Add 13.5 μL diluted drugs/extracts to ELISA plate. […] Incubate for 30 minutes while shaking at room temperature.
Approximately 150 μL final volume in well with 3 uM ATP/5 mM MnCl2 final concentration in well. Incubate 5 minutes while shaking. Note that this is a timed event. It is critical that ATP/MnCl2 phosphorylates the receptor for only 5 minutes. It is best to add the ATP/MnCl2 with an automated 96 place pipettor workstation, then 5 minutes later stop the reaction with EDTA using the same workstation. Alternatively, addition can be performed using a 12 channel pipettor 1 row at a time, leaving 20 seconds between each row so that the reaction may be stopped with EDTA exactly 5 minutes later (this depends on the number of plates being phosphorylated in one batch). Shake between each addition.
[…] This is done using either the same work station as above, or the same timing method employed with the 12 channel pipettor. After the EDTA has been added, shake for 1 minute. Wash 4× with deionized water, twice with TBST.
Add 100 μL per well of anti-phosphotyrosine (1:3000 dilution in TBST). Incubate 30-45 minutes at room temperature, with shaking. Wash 1× with distilled H2O by filling wells. Pat the plate on a paper towel to remove excess liquid.
Incubate 30 minutes at room temperature, with shaking. Wash 1× with distilled H2O by filling wells. Pat the plate on a paper towel to remove excess liquid.
Add 100 μL of ABTS/H2O2 solution to each well. Incubate 5 to 10 minutes while shaking. Remove any bubbles. If necessary stop reaction with the addition of 100 μL of 0.2M HCl per well.
as §1

T1 sequence (P09619 33-1106, species assumed): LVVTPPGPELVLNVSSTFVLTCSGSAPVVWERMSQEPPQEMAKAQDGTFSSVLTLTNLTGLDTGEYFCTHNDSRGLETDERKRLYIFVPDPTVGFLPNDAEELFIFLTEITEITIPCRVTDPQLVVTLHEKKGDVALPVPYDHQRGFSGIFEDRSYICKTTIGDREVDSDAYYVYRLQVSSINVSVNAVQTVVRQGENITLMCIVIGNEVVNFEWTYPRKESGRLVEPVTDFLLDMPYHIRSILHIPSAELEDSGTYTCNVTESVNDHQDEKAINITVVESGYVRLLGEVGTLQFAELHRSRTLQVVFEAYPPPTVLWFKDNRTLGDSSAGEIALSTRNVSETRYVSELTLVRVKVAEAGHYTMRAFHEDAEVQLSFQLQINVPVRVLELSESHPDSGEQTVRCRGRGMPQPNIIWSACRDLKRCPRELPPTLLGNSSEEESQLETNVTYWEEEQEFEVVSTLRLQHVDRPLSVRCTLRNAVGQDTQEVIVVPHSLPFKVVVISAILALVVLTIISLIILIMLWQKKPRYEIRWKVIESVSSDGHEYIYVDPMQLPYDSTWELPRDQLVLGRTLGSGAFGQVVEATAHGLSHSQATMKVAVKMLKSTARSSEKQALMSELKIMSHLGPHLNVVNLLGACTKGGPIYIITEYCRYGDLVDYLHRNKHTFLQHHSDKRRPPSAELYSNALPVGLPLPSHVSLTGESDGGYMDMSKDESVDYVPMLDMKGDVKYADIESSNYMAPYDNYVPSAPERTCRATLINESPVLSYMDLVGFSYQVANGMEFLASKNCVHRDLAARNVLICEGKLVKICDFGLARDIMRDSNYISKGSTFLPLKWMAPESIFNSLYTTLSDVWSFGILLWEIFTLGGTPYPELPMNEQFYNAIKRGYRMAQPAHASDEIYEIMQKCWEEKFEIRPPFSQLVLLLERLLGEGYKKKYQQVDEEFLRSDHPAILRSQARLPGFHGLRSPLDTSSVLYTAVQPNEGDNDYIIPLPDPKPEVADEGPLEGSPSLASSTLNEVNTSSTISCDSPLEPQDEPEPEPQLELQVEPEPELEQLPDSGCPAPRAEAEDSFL
T2 sequence (P00533 25-1210): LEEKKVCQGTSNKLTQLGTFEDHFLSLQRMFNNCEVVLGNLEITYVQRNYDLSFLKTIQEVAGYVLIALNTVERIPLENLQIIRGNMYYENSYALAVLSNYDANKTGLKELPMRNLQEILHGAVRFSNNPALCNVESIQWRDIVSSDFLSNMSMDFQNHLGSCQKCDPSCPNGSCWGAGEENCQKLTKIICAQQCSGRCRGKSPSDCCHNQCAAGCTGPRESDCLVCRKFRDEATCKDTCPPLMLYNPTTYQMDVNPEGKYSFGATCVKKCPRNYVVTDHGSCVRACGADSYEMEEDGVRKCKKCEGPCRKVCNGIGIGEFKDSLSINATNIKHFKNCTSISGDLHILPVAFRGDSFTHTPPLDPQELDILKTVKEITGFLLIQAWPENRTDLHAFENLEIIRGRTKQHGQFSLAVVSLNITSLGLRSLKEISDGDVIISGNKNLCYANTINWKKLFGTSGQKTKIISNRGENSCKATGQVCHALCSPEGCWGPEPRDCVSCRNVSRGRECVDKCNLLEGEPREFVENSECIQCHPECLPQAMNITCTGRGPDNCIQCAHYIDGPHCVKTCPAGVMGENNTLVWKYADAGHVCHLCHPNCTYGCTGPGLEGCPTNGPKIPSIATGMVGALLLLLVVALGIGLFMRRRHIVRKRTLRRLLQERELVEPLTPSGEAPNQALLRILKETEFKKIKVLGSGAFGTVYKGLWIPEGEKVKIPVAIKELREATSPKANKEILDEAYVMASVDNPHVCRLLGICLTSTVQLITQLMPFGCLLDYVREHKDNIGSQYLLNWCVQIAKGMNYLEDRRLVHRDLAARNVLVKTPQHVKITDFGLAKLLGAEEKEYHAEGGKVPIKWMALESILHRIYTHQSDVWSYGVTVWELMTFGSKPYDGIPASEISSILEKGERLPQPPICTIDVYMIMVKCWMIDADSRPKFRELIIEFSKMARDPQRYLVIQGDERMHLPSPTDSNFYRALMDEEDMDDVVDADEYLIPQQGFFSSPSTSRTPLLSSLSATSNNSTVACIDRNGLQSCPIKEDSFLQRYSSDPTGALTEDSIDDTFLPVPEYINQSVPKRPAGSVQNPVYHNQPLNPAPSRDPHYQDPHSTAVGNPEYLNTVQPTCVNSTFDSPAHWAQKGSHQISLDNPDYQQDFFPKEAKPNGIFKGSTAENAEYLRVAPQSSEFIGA

Structure (SMILES) | IC50 (PDGFR) [nM] | IC50 (EGFR; read-out: bio EGFR IC50) [nM] | IC50 (EGFR) [nM]
Cc1[nH]c(C=C2C(=O)Nc3ncnc(Nc4ccc(F)c(Cl)c4)c32)c(C)c1CCC(=O)O [Formula 19, 3-{5-[4-(3-CHLORO-4-FLUORO-PHENYLAMINO)-6-OXO-6,7-DIHYDRO-PYRROLO[2,3-D]PYRIMIDIN-5-YLIDENEMETHYL]-2,4-DIMETHYL-1H-PYRROL-3-YL}-PROPIONIC ACID] | 12800 | 170 | 
Cc1[nH]c(/C=C2\C(=O)Nc3ncnc(Nc4ccc(F)c(Cl)c4)c32)c(C)c1CCC(=O)N1CCCC1 [Formula 24] | > 20000 | 890 | 
Cc1c(C(=O)N2CCN(C)CC2)c[nH]c1/C=C1\C(=O)Nc2ncnc(Nc3ccc(F)c(Cl)c3)c21 [Formula 29] |  |  | 450
Cc1cc(C)c(/C=C2\C(=O)N(C)c3ncnc(Nc4ccc(F)c(Cl)c4)c32)[nH]1 [Formula 38] |  | 5600 | 
Cc1[nH]c(/C=C2\C(=O)N(C)c3ncnc(Nc4ccc(F)c(Cl)c4)c32)c(C)c1CCC(=O)O [Formula 40] |  | 4200 | 
Cc1[nH]c(/C=C2\C(=O)Nc3ncnc(Nc4ccc(F)c(Cl)c4)c32)c(C)c1C(=O)N1CCN(C)CC1 [Formula 41] | > 20000 | 540 | 
Cc1cc(CCC(=O)O)[nH]c1/C=C1\C(=O)N(C)c2ncnc(Nc3ccc(F)c(Cl)c3)c21 [Formula 42] |  | 10400 | 
Cc1[nH]c(/C=C2\C(=O)N(C)c3ncnc(Nc4ccc(F)c(Cl)c4)c32)c(C)c1CCCN1CCOCC1 [Formula 44] |  | > 20000 | 
CN1CCN(C(=O)c2ccc(/C=C3\C(=O)Nc4ncnc(Nc5ccc(F)c(Cl)c5)c43)[nH]2)CC1 [Formula 45] | > 20000 | 50 | 

The remaining lines, values ahead:

IC50 (PDGFR) [nM] | IC50 (EGFR; read-out: bio EGFR IC50) [nM] | IC50 (EGFR) [nM] | Structure (SMILES)
 |  | 160 | Cc1cc(C(=O)N2CCOCC2)[nH]c1/C=C1\C(=O)Nc2ncnc(Nc3ccc(F)c(Cl)c3)c21 [Formula 26]
> 20000 | 770 |  | Cc1[nH]c(/C=C2\C(=O)Nc3ncnc(Nc4ccc(F)c(Cl)c4)c32)c(C)c1CCC(=O)N1CCOCC1 [Formula 30]
> 20000 | 900 |  | O=C1Nc2ncnc(Nc3ccc(F)c(Cl)c3)c2/C1=C/c1ccc(C(=O)N2CCOCC2)[nH]1 [Formula 33]
 |  | 4 | Cc1cc(C(=O)N2CCN(C)CC2)[nH]c1/C=C1\C(=O)Nc2ncnc(Nc3ccc(F)c(Cl)c3)c21 [Formula 39]
> 20000 | 860 |  | Cc1[nH]c(/C=C2\C(=O)Nc3ncnc(Nc4ccc(F)c(Cl)c4)c32)c(C)c1C(=O)N1CCOCC1 [Formula 43]
 | 1.2 |  | Cc1cc(C(=O)N2CCOCC2)[nH]c1/C=C1\C(=O)Nc2ncnc(NC(C)c3ccccc3)c21 (stereo not shown) [Formula 46]
 | 36 |  | Cc1cc(C(=O)O)[nH]c1/C=C1\C(=O)Nc2ncnc(Nc3ccc(F)c(Cl)c3)c21 [Formula 47]
 | < 156 |  | Cc1cc(C(=O)N2CC(C)N(C)C(C)C2)[nH]c1/C=C1\C(=O)Nc2ncnc(Nc3ccc(F)c(Cl)c3)c21 (stereo not shown) [Formula 53]
 | < 156 |  | CCN1CCN(C(=O)c2cc(C)c(/C=C3\C(=O)Nc4ncnc(Nc5ccc(F)c(Cl)c5)c43)[nH]2)CC1 [Formula 54]
